Values joined by “and” are separate entries in the source; they are usually repeats but may differ in a detail not shown here. Equal values may be shown once. Active and inactive are the calls of the source.
Assays:
CHO = CHO cell viability loss, potency – luminescence, cytotoxicity control for TLR9-MyD88 binding inhibitor project, dose response (AID 588339); assay type: functional, cell-based, hamster; settings: Cricetulus griseus;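 note: CHO cells stably coexpressing TLR9 and MyD88 fusions from primary screen; compound exposure lasted 48 hours before viability readout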
[1] = biological target: T1, Replicative DNA helicase DnaB (Mycobacterium tuberculosis, UniProt P9WMR3); experiment: DnaB intein splicing inhibitors, dose response, biochemical, cell-free fluorescence (AID 449749); assay type: functional
T1 sequence (P9WMR3 whole entry): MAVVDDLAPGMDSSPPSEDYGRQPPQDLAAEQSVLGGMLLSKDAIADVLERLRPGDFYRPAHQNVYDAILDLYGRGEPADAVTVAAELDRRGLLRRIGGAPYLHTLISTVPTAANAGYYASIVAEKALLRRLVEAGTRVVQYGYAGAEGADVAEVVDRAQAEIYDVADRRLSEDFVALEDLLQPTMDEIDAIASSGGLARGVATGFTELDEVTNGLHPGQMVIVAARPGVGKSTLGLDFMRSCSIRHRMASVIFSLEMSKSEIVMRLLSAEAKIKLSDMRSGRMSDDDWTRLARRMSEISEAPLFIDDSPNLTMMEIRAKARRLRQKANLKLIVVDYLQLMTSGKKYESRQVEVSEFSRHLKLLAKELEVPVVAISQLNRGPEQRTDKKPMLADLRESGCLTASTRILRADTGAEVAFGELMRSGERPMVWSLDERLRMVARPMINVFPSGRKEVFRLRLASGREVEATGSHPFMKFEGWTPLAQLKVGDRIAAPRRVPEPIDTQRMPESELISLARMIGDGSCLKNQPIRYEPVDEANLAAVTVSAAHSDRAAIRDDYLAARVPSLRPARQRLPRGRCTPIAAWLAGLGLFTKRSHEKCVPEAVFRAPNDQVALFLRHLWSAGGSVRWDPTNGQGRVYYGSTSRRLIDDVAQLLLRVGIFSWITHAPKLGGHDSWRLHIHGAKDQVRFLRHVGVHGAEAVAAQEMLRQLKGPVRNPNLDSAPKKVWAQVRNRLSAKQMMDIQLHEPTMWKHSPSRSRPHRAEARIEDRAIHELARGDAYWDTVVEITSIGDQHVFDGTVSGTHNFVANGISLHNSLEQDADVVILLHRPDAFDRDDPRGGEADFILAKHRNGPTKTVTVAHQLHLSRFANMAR

Protein RecA = biological target: T2, Protein RecA (Mycobacterium tuberculosis, UniProt P9WHJ3); experiment: Fluorescence Cell-Free Homogeneous Dose Retest to Identify Inhibitors of RecA-Intein Splicing Activity. [Related pubchem assays (depositor defined):AID2097, AID2223, AID489010, AID492950]; assay type: functional
T2 sequence (P9WHJ3 whole entry): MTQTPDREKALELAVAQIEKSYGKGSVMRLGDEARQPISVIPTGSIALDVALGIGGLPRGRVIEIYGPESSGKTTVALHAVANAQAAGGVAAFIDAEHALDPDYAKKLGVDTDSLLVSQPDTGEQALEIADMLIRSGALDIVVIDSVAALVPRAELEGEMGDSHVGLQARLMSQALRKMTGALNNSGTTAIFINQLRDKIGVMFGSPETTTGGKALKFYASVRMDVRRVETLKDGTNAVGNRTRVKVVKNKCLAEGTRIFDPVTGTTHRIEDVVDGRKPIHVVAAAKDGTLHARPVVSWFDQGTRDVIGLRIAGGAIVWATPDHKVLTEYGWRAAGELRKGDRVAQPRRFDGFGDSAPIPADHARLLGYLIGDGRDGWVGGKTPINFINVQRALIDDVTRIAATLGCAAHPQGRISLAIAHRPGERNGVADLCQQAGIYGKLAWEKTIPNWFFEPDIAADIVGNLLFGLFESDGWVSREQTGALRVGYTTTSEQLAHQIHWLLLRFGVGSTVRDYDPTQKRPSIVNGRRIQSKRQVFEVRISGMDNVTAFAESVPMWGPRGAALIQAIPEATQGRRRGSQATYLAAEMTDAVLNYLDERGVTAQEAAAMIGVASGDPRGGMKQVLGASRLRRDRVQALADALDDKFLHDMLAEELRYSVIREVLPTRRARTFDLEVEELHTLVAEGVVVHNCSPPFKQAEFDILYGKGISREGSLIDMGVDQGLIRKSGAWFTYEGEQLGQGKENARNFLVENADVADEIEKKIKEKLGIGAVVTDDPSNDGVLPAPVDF

Beta Lactamase = Beta Lactamase (Pseudomonas aeruginosa, UniProt Q932Y6); experiment: BLA reporter interference, concentration series – BLA reporter cells, FRET fluorescence, artefact control for TLR9-MyD88 binding inhibitor project, dose response (AID 588341); assay type: cell-based;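 note: cell based assay in CHO-K1 cells stably expressing beta-lactamase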
Sequence of Beta Lactamase (Q932Y6 whole entry): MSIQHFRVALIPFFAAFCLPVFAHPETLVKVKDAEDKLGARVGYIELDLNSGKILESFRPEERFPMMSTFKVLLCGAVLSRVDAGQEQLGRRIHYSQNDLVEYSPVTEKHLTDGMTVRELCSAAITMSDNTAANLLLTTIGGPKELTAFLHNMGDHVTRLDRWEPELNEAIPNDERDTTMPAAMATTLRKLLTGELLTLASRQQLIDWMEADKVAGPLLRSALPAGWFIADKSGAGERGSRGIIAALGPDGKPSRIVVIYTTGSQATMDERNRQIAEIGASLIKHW

[2] = reduction of Shn3 3'UTR-driven luciferase in osteoblasts – cell-based, Clone20 osteoblasts, firefly luciferase, cherry-picked, dose response (AID 624132); assay type: functional;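 note: firefly luciferase luminescence from reporter carrying the Shn3 3'UTR in osteoblasts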
[3] = loss of viability in HepG2 cells – cell-based, CellTiter-Glo, cherry-picked, cytotoxicity control for Shn3 inhibitor project, dose response (AID 624134); assay type: functional
[4] = non-specific 3'UTR reporter inhibition in Clone20-Shn3RL – cell-based, Renilla luciferase, cherry-picked, counter-screen for Shn3 inhibitor project, dose response (AID 624133); assay type: functional
Fatty acid synthase [5] = biological target: T3, Fatty acid synthase (Homo sapiens, UniProt P49327); experiment: inhibition of human FAS-TE enzyme activity – biochemical, endpoint fluorescence intensity, uHTS hits, dose response (AID 624327); assay type: functional;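 note: fluorescence from hydrolysis of an O-methyl fluorescein acyl ester substrate by the enzyme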
T3 sequence (P49327 whole entry): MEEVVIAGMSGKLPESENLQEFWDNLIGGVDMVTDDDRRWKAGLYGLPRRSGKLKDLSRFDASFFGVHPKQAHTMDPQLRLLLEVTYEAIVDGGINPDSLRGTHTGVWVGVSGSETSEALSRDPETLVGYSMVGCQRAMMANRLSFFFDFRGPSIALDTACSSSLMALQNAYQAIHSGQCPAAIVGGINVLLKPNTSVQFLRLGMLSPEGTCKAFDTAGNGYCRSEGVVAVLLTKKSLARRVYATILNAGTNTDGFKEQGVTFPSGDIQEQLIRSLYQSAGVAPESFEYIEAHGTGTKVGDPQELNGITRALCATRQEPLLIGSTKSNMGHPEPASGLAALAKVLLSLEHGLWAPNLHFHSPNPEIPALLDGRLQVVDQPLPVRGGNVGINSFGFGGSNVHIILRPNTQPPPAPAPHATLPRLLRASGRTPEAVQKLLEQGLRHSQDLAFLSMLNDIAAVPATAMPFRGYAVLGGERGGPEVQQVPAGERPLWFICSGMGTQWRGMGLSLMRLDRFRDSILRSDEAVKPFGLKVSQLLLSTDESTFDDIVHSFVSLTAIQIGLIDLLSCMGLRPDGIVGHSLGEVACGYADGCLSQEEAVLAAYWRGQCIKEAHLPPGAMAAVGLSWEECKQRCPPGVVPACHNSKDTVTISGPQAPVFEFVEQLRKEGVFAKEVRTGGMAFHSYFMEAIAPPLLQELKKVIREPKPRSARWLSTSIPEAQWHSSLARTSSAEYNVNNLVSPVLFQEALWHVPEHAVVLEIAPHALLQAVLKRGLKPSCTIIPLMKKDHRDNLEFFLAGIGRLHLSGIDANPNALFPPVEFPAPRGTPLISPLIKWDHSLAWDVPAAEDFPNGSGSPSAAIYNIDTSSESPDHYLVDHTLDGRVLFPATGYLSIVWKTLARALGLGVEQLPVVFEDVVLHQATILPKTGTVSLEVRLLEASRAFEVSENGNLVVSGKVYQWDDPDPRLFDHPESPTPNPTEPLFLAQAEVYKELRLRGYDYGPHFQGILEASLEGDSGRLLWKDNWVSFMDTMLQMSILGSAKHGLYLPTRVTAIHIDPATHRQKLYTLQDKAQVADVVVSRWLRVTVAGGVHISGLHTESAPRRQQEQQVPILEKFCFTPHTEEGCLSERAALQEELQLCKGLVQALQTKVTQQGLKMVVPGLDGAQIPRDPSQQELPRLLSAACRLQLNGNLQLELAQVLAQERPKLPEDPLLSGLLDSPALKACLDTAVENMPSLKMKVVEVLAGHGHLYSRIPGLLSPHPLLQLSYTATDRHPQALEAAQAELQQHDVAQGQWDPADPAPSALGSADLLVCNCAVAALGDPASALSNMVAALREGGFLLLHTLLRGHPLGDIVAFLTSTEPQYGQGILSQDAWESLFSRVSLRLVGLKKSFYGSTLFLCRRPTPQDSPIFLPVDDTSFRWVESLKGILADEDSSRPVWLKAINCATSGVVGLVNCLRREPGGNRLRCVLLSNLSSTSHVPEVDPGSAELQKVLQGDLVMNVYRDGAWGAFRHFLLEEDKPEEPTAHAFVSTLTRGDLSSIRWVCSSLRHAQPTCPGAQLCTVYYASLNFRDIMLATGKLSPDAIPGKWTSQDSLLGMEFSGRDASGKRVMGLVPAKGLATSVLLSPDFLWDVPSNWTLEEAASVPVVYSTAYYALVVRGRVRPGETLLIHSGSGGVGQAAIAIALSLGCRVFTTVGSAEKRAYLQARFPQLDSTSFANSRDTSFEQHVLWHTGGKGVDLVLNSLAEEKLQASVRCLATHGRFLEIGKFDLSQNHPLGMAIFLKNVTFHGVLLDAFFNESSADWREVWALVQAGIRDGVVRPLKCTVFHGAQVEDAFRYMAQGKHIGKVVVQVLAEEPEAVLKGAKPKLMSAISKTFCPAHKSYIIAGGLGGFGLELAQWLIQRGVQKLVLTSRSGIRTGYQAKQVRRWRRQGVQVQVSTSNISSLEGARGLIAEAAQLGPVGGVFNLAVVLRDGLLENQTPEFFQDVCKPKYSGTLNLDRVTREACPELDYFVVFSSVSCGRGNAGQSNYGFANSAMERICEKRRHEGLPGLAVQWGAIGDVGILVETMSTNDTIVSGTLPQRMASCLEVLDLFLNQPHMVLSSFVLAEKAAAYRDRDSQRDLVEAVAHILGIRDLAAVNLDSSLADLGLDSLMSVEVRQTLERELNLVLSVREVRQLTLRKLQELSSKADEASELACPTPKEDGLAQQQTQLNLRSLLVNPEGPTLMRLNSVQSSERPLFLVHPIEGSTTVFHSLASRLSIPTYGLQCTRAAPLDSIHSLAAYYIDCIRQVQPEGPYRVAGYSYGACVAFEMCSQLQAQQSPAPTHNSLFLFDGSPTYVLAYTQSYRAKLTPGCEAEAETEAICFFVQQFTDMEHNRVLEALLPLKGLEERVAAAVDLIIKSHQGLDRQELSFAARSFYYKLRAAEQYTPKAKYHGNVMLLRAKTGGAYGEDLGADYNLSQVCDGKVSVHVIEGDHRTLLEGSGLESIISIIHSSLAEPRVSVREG

Fatty acid synthase [6] = biological target: T3, Fatty acid synthase; experiment: inhibition of human FAS-TE enzyme activity – biochemical, kinetic fluorescence intensity, dose response (AID 624326); assay type: functional;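 note: rate of fluorescence rise from hydrolysis of a fluorogenic O-methyl fluorescein ester substrate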
[7] = NIH-3T3 fibroblast cytotoxicity, dose response, cytotoxicity control, cell-based, fluorescence, Alamar Blue, secondary assay (AID 2327); assay type: functional;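 note: NIH-3T3 mouse fibroblasts cultured with fluconazole at 8 µg/mL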
[8] = decrease of insulin promoter-GFP reporter – imaging, high-content screening, mouse beta cells (AID 1628); assay type: functional; settings: MIN6
[9] = MIN6 cell viability loss – mouse insulinoma, cytotoxicity control, dose response (AID 2122); assay type: functional;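 note: confirmatory high-throughput counterscreen run to flag cytotoxic compounds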
[10] = fluconazole-exposed Candida albicans growth modulators – fluorescence, retest, confirmation (AID 2467); assay type: functional, cell-based
[11] = Trypanosoma cruzi growth suppression in host cells – NIH3T3 host cells, beta-gal luminescence, confirmation (AID 2044); assay type: functional, cell-based;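 note: intracellular parasites grown in NIH/3T3 mouse fibroblasts as host cells; luminescent beta-galactosidase reporter signal from transgenic T. cruzi replicating inside host cells; inhibitors lower the luminescence signal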
[12] = biological target: G-protein coupled receptor 55 (Homo sapiens, UniProt Q9Y2T6); experiment: selective activators of receptor GPR55 – imaging, U2OS cells, beta-arrestin-GFP redistribution, primary screen (AID 1961); assay type: functional
Sequence of G-protein coupled receptor 55 (Q9Y2T6 whole entry): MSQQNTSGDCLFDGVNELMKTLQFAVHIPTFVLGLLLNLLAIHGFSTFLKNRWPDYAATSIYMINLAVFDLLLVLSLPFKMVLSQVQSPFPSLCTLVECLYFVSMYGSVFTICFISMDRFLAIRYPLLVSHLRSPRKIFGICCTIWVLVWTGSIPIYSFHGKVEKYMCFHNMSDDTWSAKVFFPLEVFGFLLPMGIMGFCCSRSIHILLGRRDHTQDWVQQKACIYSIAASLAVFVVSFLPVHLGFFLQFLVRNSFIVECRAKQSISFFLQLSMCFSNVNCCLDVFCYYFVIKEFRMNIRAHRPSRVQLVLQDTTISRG

[13] = biological target: T4, Ubiquitin-conjugating enzyme E2 N (Homo sapiens, UniProt P61088); assay type: functional;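 note: Dose-response confirmation in a TR-FRET assay detecting UBC13-driven polyubiquitin chain formation, inhibition measured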
T4 sequence (P61088 whole entry): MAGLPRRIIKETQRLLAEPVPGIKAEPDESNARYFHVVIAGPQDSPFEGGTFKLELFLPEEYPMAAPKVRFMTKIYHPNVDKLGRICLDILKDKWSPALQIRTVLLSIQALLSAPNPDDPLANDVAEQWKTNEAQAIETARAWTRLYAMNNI

[14] = biological target: T5, Microphthalmia-associated transcription factor (Homo sapiens, UniProt O75030); experiment: reducers of TRPM1 reporter luminescence, concentration series – cell-based, SK-MEL-5, cherry-picked, set 3, MITF inhibitor project, dose response (AID 493073); assay type: functional;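 note: SK-MEL-5 melanoma cells with luciferase driven by the MITF target TRPM1 promoter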
T5 sequence (O75030 whole entry): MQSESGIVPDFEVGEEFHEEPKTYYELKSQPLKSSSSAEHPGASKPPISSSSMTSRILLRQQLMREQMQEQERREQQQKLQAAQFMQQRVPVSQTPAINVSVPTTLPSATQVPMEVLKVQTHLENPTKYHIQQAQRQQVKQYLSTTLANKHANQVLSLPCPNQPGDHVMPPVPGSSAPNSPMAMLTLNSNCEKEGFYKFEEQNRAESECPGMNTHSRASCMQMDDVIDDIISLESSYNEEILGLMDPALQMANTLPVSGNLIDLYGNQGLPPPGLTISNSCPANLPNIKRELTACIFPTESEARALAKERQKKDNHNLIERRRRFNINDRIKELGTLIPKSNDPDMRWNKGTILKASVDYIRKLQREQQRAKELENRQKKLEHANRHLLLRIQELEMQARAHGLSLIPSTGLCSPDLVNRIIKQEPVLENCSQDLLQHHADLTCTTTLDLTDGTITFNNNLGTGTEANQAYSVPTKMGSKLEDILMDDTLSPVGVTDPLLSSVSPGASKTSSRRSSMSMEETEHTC

X-box-binding protein 1 = biological target: T6, X-box-binding protein 1 (Homo sapiens, UniProt P17861); assay type: functional, Cricetulus griseus;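 note: confirmatory dose-response counter-screen serving a CHOP assay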
T6 sequence (P17861 whole entry): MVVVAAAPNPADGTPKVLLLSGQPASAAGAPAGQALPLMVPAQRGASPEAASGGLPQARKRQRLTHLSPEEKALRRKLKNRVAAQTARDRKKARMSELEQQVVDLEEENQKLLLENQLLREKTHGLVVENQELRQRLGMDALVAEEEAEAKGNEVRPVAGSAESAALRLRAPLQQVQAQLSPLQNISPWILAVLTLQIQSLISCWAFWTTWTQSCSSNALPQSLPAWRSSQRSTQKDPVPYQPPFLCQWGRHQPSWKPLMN

[15] = biological target: T7, Apoptotic protease-activating factor 1 (Homo sapiens, UniProt O14727); assay type: functional
T7 sequence (O14727 whole entry): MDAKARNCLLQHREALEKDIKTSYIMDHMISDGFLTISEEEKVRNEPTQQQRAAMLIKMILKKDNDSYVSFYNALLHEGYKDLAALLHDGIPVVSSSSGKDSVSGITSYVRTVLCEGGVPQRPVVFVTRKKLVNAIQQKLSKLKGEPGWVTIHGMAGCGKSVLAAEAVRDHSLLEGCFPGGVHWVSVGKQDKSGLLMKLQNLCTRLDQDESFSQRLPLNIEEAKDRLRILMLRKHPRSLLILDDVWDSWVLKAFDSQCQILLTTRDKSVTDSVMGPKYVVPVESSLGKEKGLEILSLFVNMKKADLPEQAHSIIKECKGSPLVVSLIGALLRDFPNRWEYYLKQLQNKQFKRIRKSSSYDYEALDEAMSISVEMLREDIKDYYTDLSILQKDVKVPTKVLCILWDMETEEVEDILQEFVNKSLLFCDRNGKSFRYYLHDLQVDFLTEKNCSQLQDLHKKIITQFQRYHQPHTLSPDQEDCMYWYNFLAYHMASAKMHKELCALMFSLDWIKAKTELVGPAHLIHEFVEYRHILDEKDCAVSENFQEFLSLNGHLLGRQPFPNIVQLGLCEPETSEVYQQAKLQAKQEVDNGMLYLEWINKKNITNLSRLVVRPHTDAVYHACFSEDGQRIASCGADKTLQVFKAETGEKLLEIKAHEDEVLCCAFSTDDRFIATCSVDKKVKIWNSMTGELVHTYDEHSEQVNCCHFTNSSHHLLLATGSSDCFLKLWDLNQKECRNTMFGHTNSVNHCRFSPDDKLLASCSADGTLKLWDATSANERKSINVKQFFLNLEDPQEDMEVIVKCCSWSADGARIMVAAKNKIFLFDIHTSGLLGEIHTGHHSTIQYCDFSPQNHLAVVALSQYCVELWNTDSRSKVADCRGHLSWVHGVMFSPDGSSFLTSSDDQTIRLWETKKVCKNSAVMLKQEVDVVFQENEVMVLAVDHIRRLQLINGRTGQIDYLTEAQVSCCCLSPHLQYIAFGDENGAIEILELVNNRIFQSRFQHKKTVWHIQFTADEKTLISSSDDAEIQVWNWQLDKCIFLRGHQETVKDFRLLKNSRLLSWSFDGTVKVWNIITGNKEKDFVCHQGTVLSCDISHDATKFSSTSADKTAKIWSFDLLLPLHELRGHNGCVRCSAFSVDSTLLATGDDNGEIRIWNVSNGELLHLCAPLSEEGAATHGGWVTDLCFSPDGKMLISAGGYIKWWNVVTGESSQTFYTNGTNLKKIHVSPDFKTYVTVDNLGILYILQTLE

INS1 = experiment: INS-1E survival protection against cytokine death – cell-based, luminescence, retest, dose response (AID 449756); assay type: functional; settings: Rattus norvegicus;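 note: cell death triggered by IL-1 beta plus TNF-alpha plus IFN-gamma mixture; protective hits raise ATP signal compared with cytokine alone wells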
A-375 = experiment: proliferation inhibition in MITF-low A375 cells – cell-based, cherry-pick samples, set 2, counter-screen for MITF modulator project, dose response (AID 540335); assay type: functional; settings: Homo sapiens
[16] = blockers of HIV-1 envelope-mediated cell-cell fusion – cherry-pick, dose response (AID 652057); assay type: functional, cell-based
[17] = viability loss in CEM21 cells – cell-based, CellTiter-Glo luminescence, cherry-picked, cytotoxicity control for viral fusion inhibitor project, dose response (AID 652042); assay type: functional;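 note: potency for signal decrease meaning cytotoxicity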
[18] = blockers of HIV-1 ZM109 envelope-driven cell-cell fusion – HeLa effector, CEM target cells, luciferase, cherry-pick, dose response (AID 652058); assay type: functional, cell-based;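 note: luciferase signal from HIV-1 Env mediated cell-cell fusion of effector and target cells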
[19] = off-target signal loss in HeLa-CEM21 co-culture – HeLa F-luc CTL cells, cherry-picked, counter-screen for HIV-1 Env fusion inhibitor project, dose response (AID 652040); assay type: functional, cell-based;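 note: potency for signal decrease marking cytotoxic or nonspecific inhibition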
[20] = HIV-1 AD8 envelope cell-cell fusion blockers – cherry-pick, dose response (AID 652062); assay type: functional, cell-based;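 note: luciferase signal from cell-cell fusion driven by HIV-1 clade B AD8 Env; potency is for inhibitors of fusion seen as a drop in luminescence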

CCCC(=O)OCCNc1cc(Sc2nc3ccccc3[nH]2)c2nonc2c1[N+](=O)[O-]
IC50 (CHO): 4.59 µM (active)
AC50 [1]: 0.855 µM (active)
EC50 (Protein RecA): 0.657 µM (active)
IC50 (Beta Lactamase): 10.9 µM (inactive)
AC50 [2]: 6.63 µM (active)
AC50 [3]: 24.2 µM (active)
AC50 [4]: 8.96 µM (active)
IC50 (Fatty acid synthase [5]): 2.2 µM (active)
IC50 (Fatty acid synthase [6]): 1.34 µM (active)

Cc1ccccc1OCc1n(CC(=O)OC2CC(C)CCC2C(C)C)c2ccccc2[n+]1C.[Cl-] (stereo unspecified)
EC50 [7]: > 160 µM (inactive)
IC50 [8]: 1.52 µM (active)
IC50 [9]: 1.95 µM (active)
EC50 [10]: 0.693 µM (active)
EC50 [11]: 684 nM (active) and 429 nM (active)
EC50 [12]: > 32 µM (inactive)
IC50 [13]: > 20 µM (inactive)
AC50 [14]: 7.51 µM (active)
Absolute IC50 (XBP1) (X-box-binding protein 1): 10 µM
IC50 [15]: 29.5 µM (active)
AC50 (INS1): 3.39 µM (active)
AC50 (A-375): 19 µM (active)
AC50 [16]: 6.17 µM (active)
AC50 [17]: 4.93 µM (active)
AC50 [18]: 8.94 µM (active)
AC50 [19]: 9.17 µM (active)
AC50 [20]: 7 µM (active)
